# Measurements as given in patent publication US7410974B2, “Halogenated Quinazolinyl nitrofurans as antibacterial agents” (Ulysses Pharmaceutical Products, Inc., priority 2003, dated 2008).
# How the values were obtained:
# C. jejuni ATCC 33291 = assay: MIC broth microdilution (NCCLS), fastidious bacteria; assay type: cell-based; conditions: Campylobacter jejuni, ATCC33291; C. jejuni ATCC 33291; MHBCA with 2% laked horse blood, 5% CO2; read-out: MIC
# Procedure, shortened: (§1)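 NCCLS broth microdilution; inoculum 10^5-10^6 CFU/ml; 2-fold serial dilutions; 35° C, 24 h; A650 plus visual read. Media: MHBCA (S. saprophyticus, E. faecium), MHBCA + 2% laked horse blood (Listeria), HTM (Haemophilus), the last two under 5% CO2.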
# H. influenzae ATCC 49247 = assay: as above; assay type: cell-based; conditions: Haemophilus influenzae, ATCC49247, HTM, 5% CO2
# Procedure, shortened: as §1
# H. influenzae ATCC 49766 [1] = assay: as above; assay type: cell-based; conditions: Haemophilus influenzae, ATCC49766, HTM, 5% CO2
# Procedure, shortened: as §1
# [2] = tested on: L. monocytogenes ATCC 13932; assay: as above; assay type: cell-based; conditions: Listeria monocytogenes, ATCC13932, MHBCA with 2% laked horse blood, 5% CO2
# Procedure, shortened: as §1
# B. catarrhalis ATCC 8176 [3] = assay: as above; assay type: cell-based, Branhamella (Moraxella) catarrhalis; conditions: Moraxella catarrhalis, ATCC8176, HTM, 5% CO2
# Procedure, shortened: as §1
# B. fragilis ATCC 25285 = assay: MIC broth microdilution (NCCLS), anaerobic; assay type: cell-based; conditions: Bacteroides fragilis, ATCC25285; B. fragilis ATCC 25285; Wilkins Chalgren broth, anaerobic, 48 hours; read-out: MIC
# Method: Minimal Inhibitory Concentration (MIC) Determination. Bacteria (primary strain panel, TABLE 1). Susceptibility tests were performed following the recommendations from the National Committee for Clinical Standards (NCCLS). The MICs were determined by a broth microdilution technique using a final volume of 100 μl of cation-adjusted Mueller Hinton Broth (MHBCA) and a bacterial inoculum of 10^5-10^6 Colony Forming Units (CFU)/ml. The inocula were verified and precisely determined by applying 10-μl drops of 10-fold dilutions onto Triptic Soy Agar plates. The CFU were counted after an incubation of 24 h at 35° C. Any experiment showing an inoculum that was more or less than 10^5-10^6 CFU/ml was rejected. Control antibiotics and test compounds were prepared at a concentration equivalent to 2-fold the highest desired final concentration. Compounds were then diluted directly in the 96-well microtiter plates by serial 2-fold dilutions using a multichannel pipette. Microtiter plates were incubated during 24 h at 35° C. and growth was recorded by using a microtiterplate reader at 650 nm as well as by visual observation. The MIC was defined as the lowest concentration of compound yielding no visible growth. […] Fastidious bacteria. The medium used for Listeria monocytogenes, Neisseria meningitidis, and Campylobacter jejuni was MHBCA containing 2% laked horse blood. The medium used for Haemophilus influenzae and Branhamella (Moraxella) catarrhalis was HTM as recommended by the NCCLS. Cultures of these fastidious bacteria were incubated at 35° C. in a 5% CO2 atmosphere. […] The medium used for Bacteroides fragilis was Wilkins Chalgren broth and growth was allowed under an anaerobic atmosphere at 35° C. for 48 hours.
# E. faecium ATCC 35667 = assay: Minimal Bactericidal Concentration (MBC); assay type: cell-based; conditions: Enterococcus faecium, ATCC35667, 99.9% killing
# Procedure, shortened: (§2)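 Bactericidal endpoint follows the MIC read: aliquots of every well without visible growth, no fewer than five, go onto TSA. Incubation lasts exactly 24 h at 35° C. Surviving colonies are then counted.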
# H. influenzae ATCC 49766 [4] = assay: Minimal Bactericidal Concentration (MBC); assay type: cell-based; conditions: Haemophilus influenzae, ATCC49766, 99.9% killing
# Procedure, shortened: as §2
# [5] = tested on: S. epidermidis ATCC 12228; assay: Minimal Bactericidal Concentration (MBC); assay type: cell-based; conditions: Staphylococcus epidermidis, ATCC12228, 99.9% killing
# Procedure, shortened: as §2
# B. catarrhalis ATCC 8176 [6] = assay: Minimal Bactericidal Concentration (MBC); assay type: cell-based, Branhamella (Moraxella) catarrhalis; conditions: Moraxella catarrhalis, ATCC8176, 99.9% killing
# Procedure, shortened: as §2
# E. coli ATCC 25922 = assay: Time-kill curves; assay type: cell-based, Escherichia coli
# Method: Time-kill curves. The bactericidal action of compounds was also evaluated over time (time-kill curve experiments). A bacterial inoculum of 1×10^5-1×10^7 Colony Forming Units (CFU)/ml was prepared. The inocula were verified and precisely determined by applying 10-μl drops of 10-fold dilutions onto Triptic Soy Agar plates. The CFU were counted after an incubation of 24 h at 35° C. Any experiment showing an inoculum that was more or less than the desired range of CFU/ml was rejected. Time-kill curve experiments were performed in 30 ml of MHB placed in 50-ml shaking flasks over a period of 24 hours. Test compounds and control antibiotics were added at time 0 hour and, at each time point, a sample was removed from flasks and the CFU determined by plate counts as described above. CFU from compound-treated cultures were compared to CFU collected from the control flask without antibiotic. Test compounds and control antibiotics were assayed at the MIC or a multiple of the MIC as determined by a broth microdilution technique as described above.
# S. aureus strain Newman = assay: S. aureus model of systemic infection in the mouse; assay type: in vivo, Staphylococcus aureus; conditions: CD-1 female mice, i.p. 10^7 CFU S. aureus Newman; oral gavage 15 mg/kg at 1 hour post-infection; kidneys 5 hours after inoculation; FIG. 3
# Method: In vivo efficacy. The antimicrobial activity of compounds was also evaluated in a S. aureus model of systemic infection in the mouse. To produce the systemic infection, CD-1 female mice (20 g) were injected intra-peritoneally with 10^7 CFU of S. aureus strain Newman suspended in 0.5 ml of endotoxin-free PBS containing 5% mucin (w/v). The compounds were administrated by oral gavage (15 mg/kg) at 1 hour post-infection and kidneys harvested and pooled, for each animal, 5 hours after bacterial inoculation. Tissues were homogenized in PBS and homogenates serially diluted and plated for CFU determination.
# Solubility in water = assay type: physicochemical; conditions: read-out: solubility in water (no visible particles)
# Method: Solubility of Compounds V and XV. The extent of solubility of compounds was evaluated in water.
smiles,measurement,setting,value
"O=[N+]([O-])c1ccc(C=Cc2nc(Nc3ccc(O)cc3)c3cc(F)ccc3n2)o1 [Compound V, 6-fluoro-2-[2-(5-nitro-2-furyl)vinyl]-4-(p-hydroxyanilino)-quinazoline]",MIC,C. jejuni ATCC 33291,0.016 µg/mL
same,MIC,H. influenzae ATCC 49247,0.03 µg/mL
same,MIC,H. influenzae ATCC 49766 [1],0.06 µg/mL
same,MIC,[2],0.03 to 0.25 µg/mL
same,MIC,B. catarrhalis ATCC 8176 [3],0.008 µg/mL
same,MIC,B. fragilis ATCC 25285,0.016 µg/mL
same,MBC,E. faecium ATCC 35667,0.25 µg/mL
same,MBC,H. influenzae ATCC 49766 [4],0.06 µg/mL
same,MBC,[5],0.03 µg/mL
same,MBC,B. catarrhalis ATCC 8176 [6],0.03 µg/mL
same,time to strongly bactericidal action (time-kill),"E. coli ATCC 25922; E. coli ATCC 25922, at the MIC or a multiple of the MIC, FIG. 2",≤ 2 h
same,bactericidal action compared with ciprofloxacin (time-kill),"E. coli ATCC 25922; E. coli, at their respective MIC or a multiple of the MIC",superior to ciprofloxacin
same,viable bacteria in the kidneys,S. aureus strain Newman,reduced significantly
same,solubility,Solubility in water,250 µg/mL
